Test results taken from PubChem BioAssay AID330 (DTP/NCI, 2004).
Several values for one entry are separate records, joined by “and”; a condition that tells them apart may be missing. Equal values may be shown once. Toxic doses and inconclusive results are not listed. Rule for the calls: active = survival T/C of 150% or more; inactive = T/C below 125% in these data.

Tested on: P388 leukemia ip, CD2F1 mice, survival T/C
Test: NCI In Vivo Anticancer Drug Screen. Data for tumor model P388 Leukemia (intraperitoneal) in CD2F1 (CDF1) mice
Conditions: endpoint: median survival time, higher = longer survival
Method in brief: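 Mice carrying the transplanted tumor received test compound or vehicle. Survival was recorded in each group, and the value is the treated-group measurement divided by that of the vehicle-treated control group.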

[1] = dose: 25.0 mg/kg/injection, schedule: Q01DX009 (ip), vehicle: saline with Tween-80
[2] = dose: 50.0 mg/kg/injection, schedule: Q01DX009 (ip), vehicle: saline with Tween-80
[3] = dose: 50.0 mg/kg/injection, schedule: Q01DX005 (ip), vehicle: saline with Tween-80
[4] = dose: 100.0 mg/kg/injection, schedule: Q01DX005 (ip), vehicle: saline with Tween-80
[5] = dose: 200.0 mg/kg/injection, schedule: Q01DX005 (ip), vehicle: saline with Tween-80
[6] = dose: 100.0 mg/kg/injection, schedule: Q04DX002 (ip), vehicle: saline with Tween-80
[7] = dose: 200.0 mg/kg/injection, schedule: Q04DX002 (ip), vehicle: saline with Tween-80
[8] = dose: 400.0 mg/kg/injection, schedule: Q04DX002 (ip), vehicle: saline with Tween-80
[9] = dose: 50.0 mg/kg/injection, schedule: Q01DX005 (ip), vehicle: Klucel (hydroxypropylcellulose) (HPC)
[10] = dose: 100.0 mg/kg/injection, schedule: Q01DX005 (ip), vehicle: Klucel (hydroxypropylcellulose) (HPC)
[11] = dose: 200.0 mg/kg/injection, schedule: Q01DX005 (ip), vehicle: Klucel (hydroxypropylcellulose) (HPC)
[12] = dose: 60.0 mg/kg/injection, schedule: Q01DX005 (ip), vehicle: saline with Tween-80
[13] = dose: 120.0 mg/kg/injection, schedule: Q01DX005 (ip), vehicle: saline with Tween-80
[14] = dose: 100.0 mg/kg/injection, schedule: Q01DX009 (ip), vehicle: saline with Tween-80
[15] = dose: 200.0 mg/kg/injection, schedule: Q01DX009 (ip), vehicle: saline with Tween-80
[16] = dose: 50.0 mg/kg/injection, schedule: Q01DX009 (ip), vehicle: Klucel (hydroxypropylcellulose) (HPC)
[17] = dose: 100.0 mg/kg/injection, schedule: Q01DX009 (ip), vehicle: Klucel (hydroxypropylcellulose) (HPC)
[18] = dose: 200.0 mg/kg/injection, schedule: Q01DX009 (ip), vehicle: Klucel (hydroxypropylcellulose) (HPC)

Measured: T/C

Fc1ccc(CSC(=S)Nc2cccc(F)c2)cc1
inactive: dose: 50.0 mg/kg/injection, schedule: Q01DX009 (ip), vehicle: suspension in saline 90 % of control | dose: 100.0 mg/kg/injection, schedule: Q01DX009 (ip), vehicle: suspension in saline 103 % of control | dose: 200.0 mg/kg/injection, schedule: Q01DX009 (ip), vehicle: suspension in saline 107 % of control

Nc1nnc2nc(C(C(=O)c3ccccc3)c3nc4nnc(N)n4[nH]c3=O)c(=O)[nH]n12
inactive: dose: 50.0 mg/kg/injection, schedule: Q01DX005 (ip), vehicle: saline 102 % of control | dose: 100.0 mg/kg/injection, schedule: Q01DX005 (ip), vehicle: saline 96 % of control | dose: 200.0 mg/kg/injection, schedule: Q01DX005 (ip), vehicle: saline 97 % of control

Clc1c(CBr)ccc(CBr)c1Cl
inactive: dose: 12.5 mg/kg/injection, schedule: Q01DX009 (ip), vehicle: saline with Tween-80 100 % of control | [1] 100 % of control | [2] 115 % of control

Cc1cccc(CSCc2c(CSCc3cccc(C)c3)c(CSCc3cccc(C)c3)c(CSCc3cccc(C)c3)c(CSCc3cccc(C)c3)c2CSCc2cccc(C)c2)c1
inactive: dose: 100.0 mg/kg/injection, schedule: Q01DX001 (ip), vehicle: saline with Tween-80 114 % of control | dose: 200.0 mg/kg/injection, schedule: Q01DX001 (ip), vehicle: saline with Tween-80 105 % of control | dose: 400.0 mg/kg/injection, schedule: Q01DX001 (ip), vehicle: saline with Tween-80 101 % of control

OC(/C=C/CC(O)(C(F)(F)F)C(F)(F)F)(C(F)(F)F)C(F)(F)F
inactive: dose: 50.0 mg/kg/injection, schedule: Q01DX009 (ip), vehicle: saline 100 % of control | dose: 100.0 mg/kg/injection, schedule: Q01DX009 (ip), vehicle: saline 98 % of control

COc1cc2c(cc1C(C)c1ccccc1)OCO2 (configuration not stated)
inactive: [3] 96 % of control | [4] 96 % of control | [5] 111 % of control

COC(=O)c1csc(-c2csc(CCNC(=O)c3ccccc3)n2)n1
inactive: [6] 93 % of control | [7] 95 % of control | [8] 96 % of control

CCCCCCCCOC(=O)Nc1ccc(OCC)cc1
inactive: dose: 0.75 mg/kg/injection, schedule: Q01DX009 (ip), vehicle: saline with Tween-80 92 % of control | dose: 1.5 mg/kg/injection, schedule: Q01DX009 (ip), vehicle: saline with Tween-80 97 % of control | dose: 3.0 mg/kg/injection, schedule: Q01DX009 (ip), vehicle: saline with Tween-80 104 % of control

COP(=S)(OC)Oc1ccc(S(N)(=O)=O)cc1
inactive: [6] 102 % of control | [7] 98 % of control | [8] 98 % of control

CC(C)CC(O)C(CC(=O)Nc1ccccc1)S(=O)(=O)c1ccccc1 (configuration not stated)
inactive: [3] 100 % of control | [4] 92 % of control | [5] 86 % of control

O=C1C2C[C@@H]3c4ccccc4N[C@@H]3N2C(=O)C2CCCN12 (some centres not stated)
inactive: [9] 97 % of control | [10] 102 % of control | [11] 94 % of control

CC(C)OC(=O)NP1(=O)NCc2ccccc2CN1
inactive: [9] 101 % of control | [10] 103 % of control | [11] 94 % of control

CSc1nc(-c2ccccc2)c(C(=O)NC(C)CN2CCCCC2)s1 (configuration not stated)
inactive: [12] 95 % of control | [13] 100 % of control

O=C(CC1=NC2NN(c3ccccc3)C(=O)C2=C1CC(=O)c1ccc(Cl)c(Cl)c1)c1ccc(Cl)c(Cl)c1 (configuration not stated)
inactive: dose: 60.0 mg/kg/injection, schedule: Q01DX005 (ip), vehicle: saline 99 % of control | dose: 120.0 mg/kg/injection, schedule: Q01DX005 (ip), vehicle: saline 100 % of control | dose: 240.0 mg/kg/injection, schedule: Q01DX005 (ip), vehicle: saline 107 % of control

CCNc1ccc2ccccc2c1N=Nc1ccc(N=Nc2ccccc2)cc1
inactive: [1] 90 % of control | [2] 90 % of control and 94 % of control | [14] 95 % of control | [15] 100 % of control

CC1=CC2C(O)(CC3(COC(=O)/C=C/c4ccccc4)OC3C3C4C(C)(C)C4(OC(=O)/C=C/c4ccccc4)C(OC(=O)/C=C/c4ccccc4)C(C)C32O)C1=O (configuration not stated)
inactive: dose: 0.2 mg/kg/injection, schedule: Q01DX005 (ip), vehicle: saline + alcohol 100 % of control | dose: 0.4 mg/kg/injection, schedule: Q01DX005 (ip), vehicle: saline + alcohol 100 % of control | dose: 0.8 mg/kg/injection, schedule: Q01DX005 (ip), vehicle: saline + alcohol 100 % of control | dose: 1.6 mg/kg/injection, schedule: Q01DX005 (ip), vehicle: saline + alcohol 98 % of control | dose: 3.2 mg/kg/injection, schedule: Q01DX005 (ip), vehicle: saline + alcohol 104 % of control

Oc1nc(-c2ccccc2)sc1-c1ccccc1
inactive: [2] 89 % of control | [14] 92 % of control | [15] 104 % of control

Cc1ccc(-n2nnc(-c3ccc(Cl)c(Cl)c3)n2)cc1
inactive: [3] 103 % of control | [4] 103 % of control | [5] 100 % of control

COc1ccccc1NC(=O)C1C(=O)C(=O)N(c2ccccc2OC)C1=O (configuration not stated)
inactive: [16] 106 % of control | [17] 106 % of control | [18] 100 % of control

O=c1[nH]c2cc(Cl)ccc2nc1/C=C(\O)c1ccccc1
inactive: dose: 60.0 mg/kg/injection, schedule: Q01DX005 (ip), vehicle: Klucel (hydroxypropylcellulose) (HPC) 96 % of control | dose: 120.0 mg/kg/injection, schedule: Q01DX005 (ip), vehicle: Klucel (hydroxypropylcellulose) (HPC) 91 % of control | dose: 240.0 mg/kg/injection, schedule: Q01DX005 (ip), vehicle: Klucel (hydroxypropylcellulose) (HPC) 92 % of control

Cc1nn(-c2nc(-c3ccc(Br)cc3)cs2)c(C)c1C
inactive: [16] 105 % of control | [17] 106 % of control | [18] 105 % of control

CCN(CC)Cc1c(C)[nH]c2cc(N(C)C)ccc2c1=O
inactive: [16] 96 % of control | [17] 97 % of control

CC1CCCCC1C(C)(C#N)Nc1ccccc1 (configuration not stated)
inactive: [14] 109 % of control | [15] 113 % of control | dose: 400.0 mg/kg/injection, schedule: Q01DX009 (ip), vehicle: saline with Tween-80 118 % of control

Cc1ccc(S(=O)(=O)N/N=C/c2ccc(Cl)cc2)cc1
inactive: dose: 12.5 mg/kg/injection, schedule: Q01DX005 (ip), vehicle: saline with Tween-80 102 % of control | dose: 25.0 mg/kg/injection, schedule: Q01DX005 (ip), vehicle: saline with Tween-80 104 % of control and 108 % of control | [3] 100 % of control and 106 % of control and 107 % of control | [5] 121 % of control

CCc1nc(N)nc(N)c1-c1ccc(N(C)C)c(N)c1
inactive: [9] 100 % of control | [10] 96 % of control

CC(C)CNC(=O)NCCCCCCNC(=O)NCC(C)C
inactive: [12] 94 % of control | [13] 93 % of control | dose: 240.0 mg/kg/injection, schedule: Q01DX005 (ip), vehicle: saline with Tween-80 93 % of control

O=C(CSCC(=O)c1ccc([N+](=O)[O-])cc1)c1ccc([N+](=O)[O-])cc1
inactive: [3] 94 % of control | [4] 96 % of control | [5] 87 % of control

CC(NC(=O)C(C)Oc1ccc(Cl)cc1Cl)C(=O)O (configuration not stated)
inactive: [3] 101 % of control | [4] 99 % of control | [5] 100 % of control

O=S(=O)(Cc1ccccc1)/N=C\c1ccc(Cl)cc1
inactive: [16] 95 % of control | [17] 103 % of control | [18] 104 % of control
